According to PubChem BioAssay (NCI):
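Where inhibition never reached the appropriate level, the endpoint shown equals the highest concentration tested. Otherwise, values were interpolated linearly from a five-concentration, 48-hour dose response in 96-well plates. GI50 is the concentration that inhibits growth by half. TGI is the concentration that stops growth completely.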

Legend:
Assay in all cases: DTP human tumour cell line panel, 48 h
OVCAR-5 ovarian = system: OVCAR-5 ovarian
LOX IMVI melanoma = system: LOX IMVI melanoma
SF-539 CNS = system: SF-539 CNS
HOP-92 NSCLC = system: HOP-92 NSCLC
NCI-H226 lung = system: NCI-H226 lung
PC-3 prostate = system: PC-3 prostate
SF-268 CNS = system: SF-268 CNS
UO-31 renal = system: UO-31 renal
MDA-MB-435 = system: MDA-MB-435
SK-MEL-2 melanoma = system: SK-MEL-2 melanoma
IGROV1 ovarian = system: IGROV1 ovarian
EKVX NSCLC = system: EKVX NSCLC
T-47D breast = system: T-47D breast
NCI/ADR-RES ovarian = system: NCI/ADR-RES ovarian
MOLT-4 leukemia = system: MOLT-4 leukemia
SK-MEL-5 melanoma = system: SK-MEL-5 melanoma
SK-MEL-28 melanoma = system: SK-MEL-28 melanoma
NCI-H23 lung = system: NCI-H23 lung
HOP-62 NSCLC = system: HOP-62 NSCLC
MCF7 breast = system: MCF7 breast
KM12 colon = system: KM12 colon
OVCAR-4 ovarian = system: OVCAR-4 ovarian
CCRF-CEM leukemia = system: CCRF-CEM leukemia
SF-295 CNS = system: SF-295 CNS
HT29 colon = system: HT29 colon
HCT-116 colon = system: HCT-116 colon
HCC-2998 colon = system: HCC-2998 colon
RPMI-8226 leukemia = system: RPMI-8226 leukemia
A498 renal = system: A498 renal
SN12C renal = system: SN12C renal
CAKI-1 renal = system: CAKI-1 renal
MALME-3M melanoma = system: MALME-3M melanoma
SW-620 colon = system: SW-620 colon
SNB-19 CNS = system: SNB-19 CNS
UACC-257 melanoma = system: UACC-257 melanoma
NCI-H522 lung = system: NCI-H522 lung
TK-10 renal = system: TK-10 renal
UACC-62 melanoma = system: UACC-62 melanoma
OVCAR-8 ovarian = system: OVCAR-8 ovarian
K-562 leukemia = system: K-562 leukemia
A549 NSCLC = system: A549 NSCLC
COLO 205 colon = system: COLO 205 colon
786-0 renal = system: 786-0 renal
SK-OV-3 ovarian = system: SK-OV-3 ovarian
NCI-H460 lung = system: NCI-H460 lung
OVCAR-3 ovarian = system: OVCAR-3 ovarian
MDA-MB-231 breast = system: MDA-MB-231 breast
ACHN renal = system: ACHN renal
U251 CNS = system: U251 CNS
HL-60(TB) leukemia = system: HL-60(TB) leukemia
SR leukemia = system: SR leukemia
RXF 393 renal = system: RXF 393 renal
HCT-15 colon = system: HCT-15 colon
M14 melanoma = system: M14 melanoma
SNB-75 CNS = system: SNB-75 CNS
DU-145 prostate = system: DU-145 prostate

With `COc1cc(C2CC(c3ccc(SC)cc3)=NN2C(C)=O)cc(OC)c1OC` (configuration not stated) the GI50 (OVCAR-5 ovarian) was 44.5 µM, the TGI (OVCAR-5 ovarian) was over 100 µM and the GI50 (LOX IMVI melanoma) was 7.1 µM. For the same compound, the TGI (LOX IMVI melanoma) was over 100 µM, the GI50 (SF-539 CNS) was 10 µM and the TGI (SF-539 CNS) was 38 µM. It also gave a GI50 (HOP-92 NSCLC) of 16 µM, a TGI (HOP-92 NSCLC) of 97.1 µM and a GI50 (NCI-H226 lung) of 19.8 µM. It also gave a TGI (NCI-H226 lung) of 45.6 µM, a GI50 (PC-3 prostate) of 16.2 µM and a TGI (PC-3 prostate) of over 100 µM. The GI50 (SF-268 CNS) was 11.9 µM, the TGI (SF-268 CNS) was over 100 µM and the GI50 (UO-31 renal) was 15.9 µM. The TGI (UO-31 renal) was 77.4 µM, the GI50 (MDA-MB-435) was 1.95 µM and the TGI (MDA-MB-435) was 5.55 µM. For the same compound, the GI50 (SK-MEL-2 melanoma) was 10.5 µM, the TGI (SK-MEL-2 melanoma) was 60.3 µM and the GI50 (IGROV1 ovarian) was 6.38 µM. It also gave a TGI (IGROV1 ovarian) of over 100 µM, a GI50 (EKVX NSCLC) of 17.7 µM and a TGI (EKVX NSCLC) of over 100 µM. The GI50 (T-47D breast) was 8.9 µM, the TGI (T-47D breast) was over 100 µM and the GI50 (NCI/ADR-RES ovarian) was 7.56 µM. For the same compound, the TGI (NCI/ADR-RES ovarian) was over 100 µM, the GI50 (MOLT-4 leukemia) was 5.2 µM and the TGI (MOLT-4 leukemia) was over 100 µM. For the same compound, the GI50 (SK-MEL-5 melanoma) was 4.04 µM, the TGI (SK-MEL-5 melanoma) was 16.1 µM and the GI50 (SK-MEL-28 melanoma) was 16.6 µM. It also gave a TGI (SK-MEL-28 melanoma) of over 100 µM, a GI50 (NCI-H23 lung) of 24.3 µM and a TGI (NCI-H23 lung) of over 100 µM. The GI50 (HOP-62 NSCLC) was 16.1 µM, the TGI (HOP-62 NSCLC) was 66.3 µM and the GI50 (MCF7 breast) was 4.47 µM. It also gave a TGI (MCF7 breast) of 77.5 µM, a GI50 (KM12 colon) of 3.89 µM and a TGI (KM12 colon) of 44.9 µM. For the same compound, the GI50 (OVCAR-4 ovarian) was 34.2 µM, the TGI (OVCAR-4 ovarian) was over 100 µM and the GI50 (CCRF-CEM leukemia) was 9.49 µM. It also gave a TGI (CCRF-CEM leukemia) of over 100 µM, a GI50 (SF-295 CNS) of 1.23 µM and a TGI (SF-295 CNS) of 4.64 µM. For the same compound, the GI50 (HT29 colon) was 4.2 µM, the TGI (HT29 colon) was over 100 µM and the GI50 (HCT-116 colon) was 4.28 µM. The TGI (HCT-116 colon) was 21 µM, the GI50 (HCC-2998 colon) was 12.1 µM and the TGI (HCC-2998 colon) was 38.7 µM. It also gave a GI50 (RPMI-8226 leukemia) of 6.51 µM, a TGI (RPMI-8226 leukemia) of 96 µM and a GI50 (A498 renal) of 12.6 µM. For the same compound, the TGI (A498 renal) was 49.3 µM, the GI50 (SN12C renal) was 28.5 µM and the TGI (SN12C renal) was over 100 µM. It also gave a GI50 (CAKI-1 renal) of 7.11 µM, a TGI (CAKI-1 renal) of 70 µM and a GI50 (MALME-3M melanoma) of 53.6 µM. It also gave a TGI (MALME-3M melanoma) of over 100 µM, a GI50 (SW-620 colon) of 4.49 µM and a TGI (SW-620 colon) of over 100 µM. The GI50 (SNB-19 CNS) was 7.04 µM, the TGI (SNB-19 CNS) was over 100 µM and the GI50 (UACC-257 melanoma) was 42 µM. It also gave a TGI (UACC-257 melanoma) of over 100 µM, a GI50 (NCI-H522 lung) of 23.8 µM and a TGI (NCI-H522 lung) of over 100 µM. It also gave a GI50 (TK-10 renal) of 22.9 µM, a TGI (TK-10 renal) of 78.1 µM and a GI50 (UACC-62 melanoma) of 9.86 µM. For the same compound, the TGI (UACC-62 melanoma) was over 100 µM, the GI50 (OVCAR-8 ovarian) was 25.2 µM and the TGI (OVCAR-8 ovarian) was over 100 µM. For the same compound, the GI50 (K-562 leukemia) was 3.47 µM, the TGI (K-562 leukemia) was 20.8 µM and the GI50 (A549 NSCLC) was 9.63 µM. The TGI (A549 NSCLC) was over 100 µM, the GI50 (COLO 205 colon) was 5.38 µM and the TGI (COLO 205 colon) was 21.6 µM. The GI50 (786-0 renal) was 14.1 µM, the TGI (786-0 renal) was 70.4 µM and the GI50 (SK-OV-3 ovarian) was 17.1 µM. For the same compound, the TGI (SK-OV-3 ovarian) was 95.9 µM, the GI50 (NCI-H460 lung) was 4.14 µM and the TGI (NCI-H460 lung) was 16.9 µM. The GI50 (OVCAR-3 ovarian) was 3.76 µM, the TGI (OVCAR-3 ovarian) was 22.8 µM and the GI50 (MDA-MB-231 breast) was 20.1 µM. The TGI (MDA-MB-231 breast) was over 100 µM, the GI50 (ACHN renal) was 18.2 µM and the TGI (ACHN renal) was over 100 µM. It also gave a GI50 (U251 CNS) of 7.27 µM, a TGI (U251 CNS) of over 100 µM and a GI50 (HL-60(TB) leukemia) of 2.68 µM. It also gave a TGI (HL-60(TB) leukemia) of 12.1 µM, a GI50 (SR leukemia) of 1.94 µM and a TGI (SR leukemia) of 14.2 µM. The GI50 (RXF 393 renal) was 13.2 µM, the TGI (RXF 393 renal) was 43.6 µM and the GI50 (HCT-15 colon) was 5.09 µM. For the same compound, the TGI (HCT-15 colon) was over 100 µM, the GI50 (M14 melanoma) was 3.91 µM and the TGI (M14 melanoma) was 38.4 µM. It also gave a GI50 (SNB-75 CNS) of 4.99 µM, a TGI (SNB-75 CNS) of 50.9 µM and a GI50 (DU-145 prostate) of 16.5 µM. For the same compound, the TGI (DU-145 prostate) was 50.6 µM.
